Experimental data from the supplement of paper PMC10307832.

How the values were obtained:
Assay in all cases: relative viability (nuclei count vs DMSO), 5 days (fraction); higher = more cells survive
[1] = compound: CN(C)C(=N)NC(=N)N [Metformin] + Cc1nc(NC(=O)N2CCC[C@H]2C(N)=O)sc1-c1ccnc(C(C)(C)C(F)(F)F)c1 [Alpelisib] (partner 2 µM)
Procedure, shortened: (§1)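 Medians of duplicate plates are given as relative viability. That measure is the nuclei count in treated wells divided by the count in vehicle wells. Counts were taken on 4× images of lung cancer cell lines in 1536-well plates, 5 days after pin-tool dosing the day after seeding with one drug alone or a fixed anchor-drug dose plus five library-drug doses (not always all listed) in √10 steps.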

[2] = compound: N#CC1(c2ccc(NC(=O)c3cccnc3NCc3ccncc3)cc2)CCCC1 [Apatinib] + NC(=O)Nc1cc(-c2cccc(F)c2)sc1C(=O)N[C@H]1CCCNC1 [AZD7762] (partner 0.2 µM)
Procedure, shortened: as §1

[3] = compound: N#CC1(c2ccc(NC(=O)c3cccnc3NCc3ccncc3)cc2)CCCC1 [Apatinib] + CC(C)C[C@H](NC(=O)[C@H](Cc1ccccc1)NC(=O)c1cnccn1)B(O)O [Bortezomib] (partner 0.002 µM)
Procedure, shortened: as §1

[4] = compound: N#CC1(c2ccc(NC(=O)c3cccnc3NCc3ccncc3)cc2)CCCC1 [Apatinib] + CC(=O)c1c(C)c2cnc(Nc3ccc(N4CCNCC4)cn3)nc2n(C2CCCC2)c1=O [Palbociclib] (partner 0.5 µM)
Procedure, shortened: as §1

Row | Cell Line | relative viability ([1]; first compound 10 µM) | relative viability ([1]; first compound 31.62 µM) | relative viability ([1]; first compound 100 µM) | relative viability ([1]; first compound 316.23 µM) | relative viability ([1]; first compound 1000 µM) | relative viability ([2]; first compound 0.08 µM) | relative viability ([2]; first compound 0.253 µM) | relative viability ([2]; first compound 0.8 µM) | relative viability ([2]; first compound 2.53 µM) | relative viability ([2]; first compound 8 µM) | relative viability ([3]; first compound 0.08 µM) | relative viability ([3]; first compound 0.253 µM) | relative viability ([3]; first compound 0.8 µM) | relative viability ([3]; first compound 2.53 µM) | relative viability ([3]; first compound 8 µM) | relative viability ([4]; first compound 0.08 µM) | relative viability ([4]; first compound 0.253 µM) | relative viability ([4]; first compound 0.8 µM) | relative viability ([4]; first compound 2.53 µM) | relative viability ([4]; first compound 8 µM)
1 | LCLC-97TM1 | 0.285 | 0.284 | 0.339 | 0.252 | 0.346 | 0.233 | 0.263 | 0.204 | 0.19 | 0.311 | 0.774 | 0.775 | 0.508 | 0.344 | 0.574 | 0.238 | 0.276 | 0.193 | 0.204 | 0.173
2 | NCI-H650 | 1.22 | 1.29 | 1.33 | 1.23 | 1.37 | 0.906 | 1.05 | 1.12 | 0.743 | 0.694 | 0.888 | 0.835 | 0.834 | 0.543 | 0.754 | 0.316 | 0.337 | 0.372 | 0.272 | 0.264
3 | HOP-62 | 0.828 | 0.77 | 0.777 | 0.928 | 0.934 | 0.676 | 0.536 | 0.453 | 0.361 | 0.348 | 1.06 | – | 0.62 | 0.672 | 0.738 | 0.441 | 0.366 | 0.377 | 0.361 | 0.219
4 | LC-2-ad | – | 0.812 | 0.671 | 0.69 | 0.651 | 0.86 | 0.892 | 0.779 | 0.825 | 0.799 | 0.937 | 1.15 | 1.22 | 0.946 | 0.832 | 0.476 | 0.501 | 0.516 | 0.436 | 0.356
5 | NCI-H2126 | 0.695 | 0.752 | 0.755 | 0.716 | 0.755 | 1.02 | 0.924 | 0.9 | 0.973 | 0.933 | 1.11 | 1.01 | 1.08 | 1.06 | 1.06 | 0.324 | 0.352 | 0.355 | 0.322 | 0.34
6 | NCI-H1975 | 0.766 | 0.839 | 0.862 | 0.707 | 0.861 | – | 0.754 | 0.71 | 0.514 | 0.655 | 0.466 | 0.417 | 0.314 | 0.323 | 0.388 | 0.654 | 0.634 | 0.597 | 0.522 | 0.526
7 | NCI-H1734 | 0.697 | 0.718 | 0.715 | 0.681 | 0.827 | 0.597 | 0.594 | 0.548 | 0.439 | 0.389 | 0.98 | 1.11 | 0.947 | 0.764 | 0.759 | 0.375 | 0.364 | 0.334 | 0.318 | 0.312
8 | NCI-H727 | 0.657 | 0.749 | 0.469 | 0.647 | 0.533 | 0.487 | – | 0.548 | 0.456 | 0.49 | 0.684 | 0.706 | 0.62 | 0.599 | 0.716 | 0.731 | – | 0.642 | 0.653 | 0.714
9 | LU99A | 0.404 | 0.4 | 0.379 | 0.382 | 0.44 | 0.413 | 0.448 | 0.269 | 0.224 | 0.229 | 1.21 | 1.22 | 1.2 | 0.943 | 0.976 | 0.505 | 0.489 | 0.383 | 0.339 | 0.328
